Assay [1] relates to human lung fibroblasts. The experiment in a line: Serum-induced fibrosis in the biomimetic five-layer lung fibrosis model. The note with it: 2 μM PP2 added to medium 24 hours after assembly and maintained; cells cultured in 2D with 2% serum, then 0.2% in the model. The class given is cell-based.
Assay [2] relates to human lung fibroblasts. In words: Agent-induced injury (fibrotic response) in the five-layer biomimetic lung model. In kind it is cell-based. The note with it: SHH added exogenously at 500 ng/ml. As for the experimental part:
In order to test whether the cells in the gel layer can be fed via the channels, one experiment was conducted with only cells in the gel layer (FIG. 39). In particular, human lung fibroblasts and THP-1 macrophage cells were included in the gel layer. The gel was created by adding collegen to physiological aqueous buffer. Additionally or alternatively, any aqueous buffer (e.g., phosphate buffered saline (PBS) buffer) can be used. The aqueous buffer can be kept at a concentration between 0.1 and 2 mg/ml and kept at 4° C. Human lung fibroblasts (100 K cells/ml) and THP-1 macrophage (50 K cells/ml) cells were added to the gel during the liquid phase. The side of the membranes facing the chamber slab (e.g. 242 and 251) were treated with sulfo-sanpah to promote collagen/ECM anchorage. The lower channel slab, lower membrane, and chamber slab were stacked. The gel was then pipetted into the chamber (e.g., 231). After the upper membrane and upper channel slab was placed on top, the biomimetic organ model was clamped and the biomimetic organ model was placed in the incubator at 37° C. The biomimetic organ model was incubated for five days. For continuous perfusion of culture medium at 200 μL/hr in each channel, FGM-2 can be used as the medium having a reduced serum (e.g., between 0-2% and 2%).
In this study, the development of the organ injury model was examined. […]

Regarding `CC(C)(C)n1nc(-c2ccc(Cl)cc2)c2c(N)ncnc21` [PP2], the “effect on serum-induced fibrosis (FIG. 49)” value in the assay with human lung fibroblasts [1] is reported as “reduced fibrosis”.
Regarding sonic hedgehog [SHH], in the assay on human lung fibroblasts [2], the “induction of fibrotic response (FIG. 48)” value is given as “a fibrotic response can be induced”.

(Values after patent publication US12534696B2, “Systems and methods for immobilizing extracellular matrix material on organ on chip, multilayer microfluidics microdevices, and three-dimensional cell culture systems” (THE TRUSTEES OF THE UNIVERSITY OF PENNSYLVANIA, priority 2015, dated 2026).)
